Some results are limits rather than exact numbers.

Results on one compound are retold here after paper PMC5138414, “Structural Basis for Redox Regulation of Cytoplasmic and Chloroplastic Triosephosphate Isomerases from Arabidopsis thaliana” (Frontiers in Plant Science, 2016).

Common to all, as to assay: residual activity after MMTS incubation, coupled assay at […] nm
Type in all cases: biochemical

Experiment [1] concerns the target T1, pdTPI (Arabidopsis thaliana, UniProt Q9SKP6).
T1 construct: gene TIM; homodimer
The note with it: covalent (cysteine); 3 h incubation at room temperature, 0.184 nM enzyme, TEA pH 7.4, 10 mM EDTA; MMTS 0-50 µM.
Target sequence in this assay (Q9SKP6 60-315 C148S): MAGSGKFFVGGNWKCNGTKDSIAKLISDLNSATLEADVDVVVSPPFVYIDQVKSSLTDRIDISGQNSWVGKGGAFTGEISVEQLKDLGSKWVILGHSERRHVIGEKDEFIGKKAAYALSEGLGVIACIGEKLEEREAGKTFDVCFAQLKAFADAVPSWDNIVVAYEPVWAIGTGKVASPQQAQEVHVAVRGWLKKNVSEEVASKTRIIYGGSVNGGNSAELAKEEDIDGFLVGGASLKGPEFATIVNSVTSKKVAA

The target of experiment [2] is T2, cTPI (Arabidopsis thaliana, UniProt P48491, C13S).
T2 construct: gene CTIMC; homodimer
T2 sequence (P48491 whole entry C13S): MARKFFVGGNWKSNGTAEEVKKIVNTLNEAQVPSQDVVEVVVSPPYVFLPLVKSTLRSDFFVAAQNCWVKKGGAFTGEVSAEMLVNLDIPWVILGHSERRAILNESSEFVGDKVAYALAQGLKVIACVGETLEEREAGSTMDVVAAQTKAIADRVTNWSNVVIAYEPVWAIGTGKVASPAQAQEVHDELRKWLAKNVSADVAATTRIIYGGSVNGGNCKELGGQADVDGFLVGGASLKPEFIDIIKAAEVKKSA

Experiment [3] deals with T3, cTPI (Arabidopsis thaliana, UniProt P48491, C218S).
T3 construct: gene CTIMC; homodimer
T3 sequence (P48491 1-254 C218S): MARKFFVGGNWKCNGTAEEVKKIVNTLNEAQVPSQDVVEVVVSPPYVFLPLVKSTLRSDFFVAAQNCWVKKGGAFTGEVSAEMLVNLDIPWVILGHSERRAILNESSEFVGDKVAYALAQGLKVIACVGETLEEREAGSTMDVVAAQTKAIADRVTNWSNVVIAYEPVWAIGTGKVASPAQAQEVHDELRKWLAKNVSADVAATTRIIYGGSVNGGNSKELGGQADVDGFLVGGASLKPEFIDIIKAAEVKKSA
The settings on record: read-out: MMTS concentration necessary to inhibit 50%.

The target of experiment [4] is T1, pdTPI. The note with it: read-out: 50% of enzymatic activity.
Target sequence in this assay (Q9SKP6 60-315): as the sequence (Q9SKP6 60-315 C148S) above, with S89C counted along it
Experiment [5] addresses T4, cTPI (Arabidopsis thaliana, UniProt P48491).
T4 construct: gene CTIMC; homodimer
The settings on record: covalent (C13, C218); 3 h incubation at room temperature, 0.184 nM enzyme, TEA pH 7.4, 10 mM EDTA.

T4 sequence (P48491 whole entry): as the sequence (P48491 whole entry C13S) above, with S13C counted along it

Usually remaining activity stands for the activity still measured, relative to the control. A higher remaining activity goes with a small loss of activity. Regarding `CSS(C)(=O)=O` [MMTS], the “% activity remaining (dose curve)” value at pdTPI [1] is on record as “Mutation pdTPI-C89S is more susceptible to MMTS inhibition”. This compound registered a remaining activity at 0.125 µM on cTPI [2] of 70%. The IC50 was 125 nM on cTPI [3] and over 10000 nM on pdTPI [4]. The “% decrease of activity at 31.25 nM” value at cTPI [5] is 90%.
